The subject of assay [1] is cancer cell lines. Kind of assay: In vitro cell proliferation assay in cancer cell lines (MTT dye reduction, 72 h). The assay is classed as cell-based. The note with it: cancer cell line not named, 10% FBS media. Here is the method: Assay 4: In Vitro Cell Proliferation Assay in Cancer Cell Lines
Growth inhibition assays were carried out using 10% FBS supplemented media. Cells were seeded at a concentration of 5000-20,000 cells/well in a 96-well plate. Test compounds at a concentration range from 0.01 to 10000 nM were added after 24 hours. Growth was assessed using the 3-[4,5-dimethylthiazol-2-yl]-2,5-diphenyltetrazolium bromide (MIT) dye reduction test at 0 h (prior to the addition of the test compound) and 72 hours after the addition of test compound. Absorbance was read on a Fluostar Optima (BMG Labtech, Germany) at a wave length of 450 nm. Data were analysed using GraphPad Prism and percent inhibition due to the test compound compared to the control was calculated accordingly.
Background: Tetrazolium assays rely on reduction of a dye to a coloured formazan, in cell work by metabolically active cells.

The target in assay [2] is T1, L-glutaminase present in mice brain homogenate (Glutaminase(Brain)) (Mus musculus, UniProt D3Z7P3).
T1 sequence (D3Z7P3 55-674): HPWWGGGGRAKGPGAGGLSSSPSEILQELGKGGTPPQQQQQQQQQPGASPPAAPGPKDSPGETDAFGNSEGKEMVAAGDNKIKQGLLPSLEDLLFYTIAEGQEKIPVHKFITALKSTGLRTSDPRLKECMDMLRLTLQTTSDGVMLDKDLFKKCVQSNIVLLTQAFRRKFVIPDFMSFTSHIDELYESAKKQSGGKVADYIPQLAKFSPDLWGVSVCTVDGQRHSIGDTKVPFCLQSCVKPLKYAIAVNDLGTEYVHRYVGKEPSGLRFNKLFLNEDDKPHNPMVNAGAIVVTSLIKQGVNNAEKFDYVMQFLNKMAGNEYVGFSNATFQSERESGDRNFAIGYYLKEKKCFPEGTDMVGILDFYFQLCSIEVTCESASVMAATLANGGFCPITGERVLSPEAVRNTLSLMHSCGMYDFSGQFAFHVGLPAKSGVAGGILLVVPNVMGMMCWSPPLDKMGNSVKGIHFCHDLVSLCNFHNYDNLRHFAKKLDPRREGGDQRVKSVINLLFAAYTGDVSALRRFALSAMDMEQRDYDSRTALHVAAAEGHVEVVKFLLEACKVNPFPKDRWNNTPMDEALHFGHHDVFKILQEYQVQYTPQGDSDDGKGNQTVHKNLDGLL
Kind of assay: Glutaminase enzyme activity using glutaminase enzyme from mice brain/kidney homogenate (Nessler's reagent, ammonia). The assay is classed as biochemical. The note with it: for inhibition at 0.1 µM: read-out: Glutaminase(Brain) activity % inhibition 0.1 μM; for inhibition at 1 µM: read-out: Glutaminase(Brain) activity % inhibition @1 μM. Here is the method: Assay 3: Determination of Glutaminase Enzyme Activity Using Glutaminase
Enzyme from Mice Brain/Kidney
Step 1: Preparation of Tissue Homogenates: Male Balb/c mice were administered 0.28 M ammonium chloride in drinking water for 7 days. The animals were sacrificed and brain/kidney organs collected on dry ice. […] The tissue was homogenized and supernatants were stored at −80° C. until the enzyme assay was performed.
Aim: Compounds were assessed for their ability to inhibit the enzymatic activity of L-glutaminase present in mice brain/kidney homogenate.
Protocol: The assay was performed using a colorimetric method using Nessler's Reagent by quantifying the amount of ammonia formed as a by product during the enzymatic conversion of L-glutamine to glutamate. In the routine assay, 16 μl of tissue homogenate is added to 33 μl of Tris-Hcl phosphate buffer (pH 8) along with 1 μl of DMSO/test compound containing the desired final concentration and vortexed briefly. 50 μl of 20 mM L-glutamine Tris buffer is added to start the reaction and incubated for 15 minutes at 37° C. The ammonia formed is detected by adding 20 μl of reaction mixture to cold water in a 96 well plate followed by 20 μl of Nessler's reagent. The colour developed is measured at 450 nm. Data Analysis: Activity of the test compound is reported as % inhibition and the data is analyzed using Graphpad Prism (Graphpad software; San Diego Calif.) for IC50 determination.

Like-named read-outs stand apart in the source and are kept apart here.

As a reminder, the GI50 is the concentration at which growth is held to half of that of the control. Lower therefore signals greater sensitivity of the cells. One may read the inhibition as the change of the read-out against control, counted positive when it falls.

The molecule `O=C(Cc1cccc(OC(F)(F)F)c1)Nc1ccc(CCCCc2nnc(NC(=O)Cc3ccccn3)s2)cn1` [Example 3, 2-(Pyridin-2-yl)-N-(5-(4-(6-(2-(3-(trifluoromethoxy)phenyl)acetamido)pyridin-3-yl)butyl)-1,3,4-thiadiazol-2-yl)acetamide] showed a concentration for 50% growth inhibition (GI50) in assay [1] of 400 to 1000 nM. For the same molecule, in assay [2], the inhibition at 0.1 µM lay within 50 to 75% and the inhibition at 1 µM lay within 75 to 100%.

As to `O=C(Cc1cccnc1)Nc1ccc(CCCCc2nnc(NC(=O)Cc3cccc(OC(F)(F)F)c3)s2)cn1` [Example-11, 2-(Pyridin-3-yl)-N-(5-(4-(5-(2-(3-(trifluoromethoxy)phenyl)acetamido)-1,3,4-thiadiazol-2-yl)butyl)pyridin-2-yl)acetamide], in assay [1], the GI50 is less than 100 nM. For the same molecule, the inhibition at 0.1 µM in assay [2] (0.1 μM, mice brain homogenate) was in the range of 75 to 100%. In addition, the inhibition at 1 µM in assay [2] (1 μM, mice brain homogenate) was in the range of 75 to 100%.

For `O=C(Cc1cccc(OC(F)(F)F)c1)Nc1ccc(CCCCc2nnc(NC(=O)Cc3cccc(OC(F)(F)F)c3)s2)cn1` [Example-16, 2-(3-(Trifluoromethoxy)phenyl)-N-(5-(4-(5-(2-(3-(trifluoromethoxy)phenyl)acetamido)-1,3,4-thiadiazol-2-yl)butyl)pyridin-2-yl)acetamide], in assay [1], the 50% growth inhibitory concentration (GI50) was less than 100 nM. Also, the inhibition at 0.1 µM in assay [2] (0.1 μM, mice brain homogenate) lay within 25 to 50%. The inhibition at 1 µM in assay [2] (1 μM, mice brain homogenate) lay within 50 to 75%.

For the molecule `N#Cc1cccc(CC(=O)Nc2nnc(CCCCc3ccc(NC(=O)Cc4cccc(OC(F)(F)F)c4)nc3)s2)c1` [Example-17, 2-(3-Cyanophenyl)-N-(5-(4-(6-(2-(3-(trifluoromethoxy)phenyl)acetamido)pyridin-3-yl)butyl)-1,3,4-thiadiazol-2-yl)acetamide], the GI50 in assay [1] lay within 100 to 400 nM. Moreover, in assay [2] (0.1 μM, mice brain homogenate), the inhibition at 0.1 µM lay in the range of 25 to 50%. In assay [2] (1 μM, mice brain homogenate), the inhibition at 1 µM was 75 to 100%.

For `O=C(Cc1cccnc1)Nc1ccc(CCCCc2nnc(NC(=O)Cc3cccc(Cl)c3)s2)cn1` [Example-18, 2-(3-Chlorophenyl)-N-(5-(4-(6-(2-(pyridin-3-yl)acetamido)pyridin-3-yl)butyl)-1,3,4-thiadiazol-2-yl)acetamide], the GI50 in assay [1] is 100 to 400 nM. In addition, the inhibition at 0.1 µM in assay [2] (0.1 μM, mice brain homogenate) fell in the range of 50 to 75%. For the same molecule, the inhibition at 1 µM in assay [2] (1 μM, mice brain homogenate) lay in the range of 75 to 100%.

In turn, `O=C(Cc1cccnc1)Nc1ccc(CCCCc2nnc(NC(=O)Cc3cccc(F)c3)s2)cn1` [Example-20, 2-(3-Fluorophenyl)-N-(5-(4-(6-(2-(pyridin-3-yl)acetamido)pyridin-3-yl)butyl)-1,3,4-thiadiazol-2-yl)acetamide] yielded a 50% growth inhibitory concentration (GI50) in assay [1] of 400 to 1000 nM. The inhibition at 0.1 µM in assay [2] (0.1 μM, mice brain homogenate) is 75 to 100%. Moreover, the inhibition at 1 µM in assay [2] (1 μM, mice brain homogenate) lay in the range of 75 to 100%.

Molecule `O=C(Cc1cccc(OC(F)(F)F)c1)Nc1ccc(CCCCc2nnc(NC(=O)Cc3cccnc3)s2)c(F)n1` [Example-21, N-(6-Fluoro-5-(4-(5-(2-(pyridin-3-yl)acetamido)-1,3,4-thiadiazol-2-yl)butyl)pyridin-2-yl)-2-(3-(trifluoromethoxy)phenyl)acetamide] showed a GI50 in assay [1] of less than 100 nM. Further, the inhibition at 0.1 µM in assay [2] (0.1 μM, mice brain homogenate) fell in the range of 50 to 75%. Besides, the inhibition at 1 µM in assay [2] (1 μM, mice brain homogenate) lay in the range of 75 to 100%.

Take `CCC(Cl)C(=O)Nc1nnc(CCCCc2ccc(NC(=O)Cc3cccc(OC(F)(F)F)c3)nc2)s1` (stereo not drawn) [Example-24, 2-Chloro-N-(5-(4-(6-(2-(3-(trifluoromethoxy)phenyl)acetamido)pyridin-3-yl)butyl)-1,3,4-thiadiazol-2-yl)butanamide]: in assay [1], the 50% growth inhibitory concentration (GI50) was in the range of 400 to 1000 nM. In addition, the inhibition at 0.1 µM in assay [2] (0.1 μM, mice brain homogenate) is less than 25%. Further, in assay [2] (1 μM, mice brain homogenate), the inhibition at 1 µM was less than 25%.

In the case of `O=C(Cc1cccc(OC(F)(F)F)c1)Nc1ccc(CCCCc2nnc(NC(=O)Cc3cnccn3)s2)cn1` [Example-28, 2-(Pyrazin-2-yl)-N-(5-(4-(6-(2-(3-(trifluoromethoxy)phenyl)acetamido)pyridin-3-yl)butyl)-1,3,4-thiadiazol-2-yl)acetamide], the 50% growth inhibitory concentration (GI50) in assay [1] was 1000 to 5000 nM. Moreover, the inhibition at 0.1 µM in assay [2] (0.1 μM, mice brain homogenate) fell in the range of 75 to 100%. The inhibition at 1 µM in assay [2] (1 μM, mice brain homogenate) fell in the range of 50 to 75%.

With `O=C(Cc1cccc(OC(F)(F)F)c1)Nc1ccc(CCCCc2nnc(NC(=O)Cc3ccccn3)s2)c(F)n1` [Example-29, N-(6-fluoro-5-(4-(5-(2-(pyridin-2-yl)acetamido)-1,3,4-thiadiazol-2-yl)butyl)pyridin-2-yl)-2-(3-(trifluoromethoxy)phenyl)acetamide], in assay [1], the concentration for 50% growth inhibition (GI50) lay within 1000 to 5000 nM. The inhibition at 0.1 µM in assay [2] (0.1 μM, mice brain homogenate) fell in the range of 50 to 75%. The inhibition at 1 µM in assay [2] (1 μM, mice brain homogenate) lay within 75 to 100%.

`CS(=O)(=O)Nc1cccc(CC(=O)Nc2nnc(CCCCc3ccc(NC(=O)Cc4cccc(OC(F)(F)F)c4)nc3)s2)c1` [Example-30, 2-(3-(Methylsulfonamido)phenyl)-N-(5-(4-(6-(2-(3-(trifluoromethoxy)phenyl)acetamido)pyridin-3-yl)butyl)-1,3,4-thiadiazol-2-yl)acetamide] displayed a concentration for 50% growth inhibition (GI50) in assay [1] of 1000 to 5000 nM. The inhibition at 0.1 µM in assay [2] (0.1 μM, mice brain homogenate) was in the range of 50 to 75%. The inhibition at 1 µM in assay [2] (1 μM, mice brain homogenate) is 75 to 100%.

On to `CS(=O)(=O)Nc1ccc(CC(=O)Nc2nnc(CCCCc3ccc(NC(=O)Cc4cccc(OC(F)(F)F)c4)nc3)s2)cc1` [Example-31, 2-(4-(Methylsulfonamido)phenyl)-N-(5-(4-(6-(2-(3-(trifluoromethoxy)phenyl)acetamido)pyridin-3-yl)butyl)-1,3,4-thiadiazol-2-yl)acetamide], for which, in assay [1], the concentration for 50% growth inhibition (GI50) was in the range of 5000 to 10000 nM. Also, the inhibition at 0.1 µM in assay [2] (0.1 μM, mice brain homogenate) fell in the range of 50 to 75%. In addition, the inhibition at 1 µM in assay [2] (1 μM, mice brain homogenate) was in the range of 75 to 100%.

Regarding `O=C(Cc1ccccn1)Nc1ccc(CCCCc2nnc(NC(=O)Cc3cccc(OC(F)(F)F)c3)s2)c(F)n1` [Example-32, N-(6-fluoro-5-(4-(5-(2-(3-(trifluoromethoxy)phenyl)acetamido)-1,3,4-thiadiazol-2-yl)butyl)pyridin-2-yl)-2-(pyridin-2-yl)acetamide], the 50% growth inhibitory concentration (GI50) in assay [1] was in the range of 400 to 1000 nM. The inhibition at 0.1 µM in assay [2] (0.1 μM, mice brain homogenate) is less than 25%. Also, in assay [2] (1 μM, mice brain homogenate), the inhibition at 1 µM lay within 75 to 100%.

As to `O=C(Cc1ccccn1)Nc1ccc(CCCCc2nnc(NC(=O)Cc3cccnc3)s2)c(F)n1` [Example-38, N-(6-fluoro-5-(4-(5-(2-(pyridin-3-yl)acetamido)-1,3,4-thiadiazol-2-yl)butyl)pyridin-2-yl)-2-(pyridin-2-yl)acetamide], in assay [1], the concentration for 50% growth inhibition (GI50) is less than 100 nM. In addition, in assay [2] (0.1 μM, mice brain homogenate), the inhibition at 0.1 µM was 25 to 50%. Besides, in assay [2] (1 μM, mice brain homogenate), the inhibition at 1 µM fell in the range of 75 to 100%.

In assay [1], `O=C(Cc1cccc(OC(F)(F)F)c1)Nc1ccc(CC2CC(c3nnc(NC(=O)Cc4ccccn4)s3)C2)cn1` (stereo not drawn) [Example-107, 2-(Pyridin-2-yl)-N-(5-(3-((6-(2-(3-(trifluoromethoxy)phenyl)acetamido)pyridin-3-yl)methyl)cyclobutyl)-1,3,4-thiadiazol-2-yl)acetamide] registered a GI50 of 400 to 1000 nM. Moreover, the inhibition at 0.1 µM in assay [2] (0.1 μM, mice brain homogenate) was 25 to 50%. Besides, in assay [2] (1 μM, mice brain homogenate), the inhibition at 1 µM was in the range of 50 to 75%.

Molecule `O=C(Cc1cccc(OC(F)(F)F)c1)Nc1ccc(CC2CC(c3nnc(NC(=O)Cc4cccnc4)s3)C2)cn1` (stereo not drawn) [Example-108, 2-(Pyridin-3-yl)-N-(5-(3-((6-(2-(3-(trifluoromethoxy)phenyl)acetamido)pyridin-3-yl)methyl)cyclobutyl)-1,3,4-thiadiazol-2-yl)acetamide] came in with a 50% growth inhibitory concentration (GI50) in assay [1] of 100 to 400 nM. For the same molecule, the inhibition at 0.1 µM in assay [2] (0.1 μM, mice brain homogenate) is 75 to 100%. Moreover, the inhibition at 1 µM in assay [2] (1 μM, mice brain homogenate) was 75 to 100%.

Molecule `O=C(Cc1cccnc1)Nc1ccc(CC2CC(c3nnc(NC(=O)Cc4cccc(OC(F)(F)F)c4)s3)C2)cn1` (stereo not drawn) [Example-109, 2-(Pyridin-3-yl)-N-(5-((3-(5-(2-(3-(trifluoromethoxy)phenyl)acetamido)-1,3,4-thiadiazol-2-yl)cyclobutyl)methyl)pyridin-2-yl)acetamide] displayed a GI50 in assay [1] of less than 100 nM. The inhibition at 0.1 µM in assay [2] (0.1 μM, mice brain homogenate) was in the range of 50 to 75%. Moreover, the inhibition at 1 µM in assay [2] (1 μM, mice brain homogenate) lay within 75 to 100%.

These data come from patent US20160297761A1, “NOVEL INHIBITORS OF GLUTAMINASE” (RHIZEN PHARMACEUTICALS SA, priority 2014, published 2016).
